Data reported in BindingDB's records for PubMed 2867217 (Smith Kline & French Laboratories, 1986).
Values joined by “and” are separate entries in the source; they are usually repeats but may differ in a detail not shown here. Equal entries are not always repeated. Structures can show the parent of a compound that is named as a salt.

Key:
[1] = target: T1, Alpha-1D adrenergic receptor (Mus musculus, UniProt P97714)
T1 sequence (P97714 whole entry): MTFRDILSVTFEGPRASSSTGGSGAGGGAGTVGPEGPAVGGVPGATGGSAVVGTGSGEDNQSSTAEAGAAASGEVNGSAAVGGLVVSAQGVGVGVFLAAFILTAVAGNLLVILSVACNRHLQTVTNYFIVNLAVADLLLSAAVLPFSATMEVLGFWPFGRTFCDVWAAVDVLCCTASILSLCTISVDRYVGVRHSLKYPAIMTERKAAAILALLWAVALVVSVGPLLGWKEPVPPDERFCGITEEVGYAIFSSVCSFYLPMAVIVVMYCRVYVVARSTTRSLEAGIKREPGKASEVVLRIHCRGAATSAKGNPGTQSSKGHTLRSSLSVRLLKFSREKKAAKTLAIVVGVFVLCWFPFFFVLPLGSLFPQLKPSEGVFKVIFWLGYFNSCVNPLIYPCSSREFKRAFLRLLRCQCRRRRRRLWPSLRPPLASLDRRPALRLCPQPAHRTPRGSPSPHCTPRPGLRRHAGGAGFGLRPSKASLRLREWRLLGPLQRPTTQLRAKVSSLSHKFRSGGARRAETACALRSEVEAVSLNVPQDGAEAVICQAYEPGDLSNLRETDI

[2] = target: T2, Alpha-1A adrenergic receptor (Oryctolagus cuniculus, UniProt O02824)
T2 sequence (O02824 whole entry): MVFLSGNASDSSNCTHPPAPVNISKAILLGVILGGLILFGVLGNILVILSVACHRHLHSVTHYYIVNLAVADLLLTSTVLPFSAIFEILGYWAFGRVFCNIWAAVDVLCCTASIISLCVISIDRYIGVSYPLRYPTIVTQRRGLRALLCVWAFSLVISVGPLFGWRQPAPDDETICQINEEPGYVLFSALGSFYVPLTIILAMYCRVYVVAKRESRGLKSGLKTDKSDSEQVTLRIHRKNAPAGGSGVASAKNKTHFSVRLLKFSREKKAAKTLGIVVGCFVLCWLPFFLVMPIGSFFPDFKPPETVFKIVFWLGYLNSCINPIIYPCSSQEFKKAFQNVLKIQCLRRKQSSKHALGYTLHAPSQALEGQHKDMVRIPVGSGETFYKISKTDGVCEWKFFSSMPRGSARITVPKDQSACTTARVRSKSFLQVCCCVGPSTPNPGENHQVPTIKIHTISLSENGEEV

[3] = target: T3, Alpha-1A adrenergic receptor (Canis lupus familiaris, UniProt O77621)
T3 sequence (O77621 whole entry): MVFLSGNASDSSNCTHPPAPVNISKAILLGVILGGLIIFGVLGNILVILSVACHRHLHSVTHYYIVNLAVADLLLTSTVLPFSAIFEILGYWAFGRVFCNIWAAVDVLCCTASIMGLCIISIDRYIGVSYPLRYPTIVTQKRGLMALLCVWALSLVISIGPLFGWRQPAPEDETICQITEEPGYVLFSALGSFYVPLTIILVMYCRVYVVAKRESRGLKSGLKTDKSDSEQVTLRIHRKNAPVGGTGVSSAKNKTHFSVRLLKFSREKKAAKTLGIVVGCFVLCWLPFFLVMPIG

[4] = target: T4, Alpha-2B adrenergic receptor (Canis lupus familiaris, UniProt Q2MDQ0)
T4 sequence (Q2MDQ0 whole entry): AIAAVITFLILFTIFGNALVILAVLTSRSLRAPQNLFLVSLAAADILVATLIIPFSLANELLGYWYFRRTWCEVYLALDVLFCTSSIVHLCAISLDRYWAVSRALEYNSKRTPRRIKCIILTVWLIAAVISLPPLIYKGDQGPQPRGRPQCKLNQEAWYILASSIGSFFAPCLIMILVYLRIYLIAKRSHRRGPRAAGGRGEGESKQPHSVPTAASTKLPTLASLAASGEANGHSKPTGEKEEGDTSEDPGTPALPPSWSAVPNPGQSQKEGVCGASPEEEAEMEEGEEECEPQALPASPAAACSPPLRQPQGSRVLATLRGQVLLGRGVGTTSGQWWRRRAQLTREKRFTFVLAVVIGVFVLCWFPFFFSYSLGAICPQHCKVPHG

[5] = target: T5, Alpha-2A adrenergic receptor (Cavia porcellus, UniProt Q60474)
T5 sequence (Q60474 whole entry): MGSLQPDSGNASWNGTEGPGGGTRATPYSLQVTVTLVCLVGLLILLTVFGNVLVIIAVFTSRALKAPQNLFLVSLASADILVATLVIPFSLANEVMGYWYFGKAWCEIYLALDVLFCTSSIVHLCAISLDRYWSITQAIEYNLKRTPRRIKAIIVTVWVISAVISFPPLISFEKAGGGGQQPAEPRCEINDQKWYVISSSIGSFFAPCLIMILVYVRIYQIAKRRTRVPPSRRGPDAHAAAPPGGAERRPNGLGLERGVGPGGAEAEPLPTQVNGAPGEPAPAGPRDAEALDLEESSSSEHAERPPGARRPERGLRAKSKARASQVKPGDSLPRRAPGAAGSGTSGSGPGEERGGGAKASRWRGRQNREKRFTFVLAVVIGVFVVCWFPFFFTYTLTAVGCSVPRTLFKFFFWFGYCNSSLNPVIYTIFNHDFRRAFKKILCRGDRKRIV

[6] = target: T6, Alpha-2B adrenergic receptor (Oryctolagus cuniculus, UniProt O77830)
T6 sequence (O77830 whole entry): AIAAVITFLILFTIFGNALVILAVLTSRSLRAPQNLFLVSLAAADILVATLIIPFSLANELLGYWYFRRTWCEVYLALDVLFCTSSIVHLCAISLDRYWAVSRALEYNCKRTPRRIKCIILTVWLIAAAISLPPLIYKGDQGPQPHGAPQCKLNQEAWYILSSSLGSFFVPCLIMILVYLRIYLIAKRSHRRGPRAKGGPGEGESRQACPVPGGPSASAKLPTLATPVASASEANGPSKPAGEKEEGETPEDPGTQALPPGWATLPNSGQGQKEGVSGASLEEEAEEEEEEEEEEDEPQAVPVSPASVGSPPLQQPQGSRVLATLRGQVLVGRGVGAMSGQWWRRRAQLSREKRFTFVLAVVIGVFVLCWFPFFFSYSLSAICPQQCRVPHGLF

| Compound | Ki [1] | Ki [2] | Ki [3] | Ki [4] | Ki [5] | Ki [6] |
| --- | --- | --- | --- | --- | --- | --- |
| c1ccc2c(c1)OCC(C1=NCCN1)O2 (stereo not given) | 12 nM | 2300 nM |  |  |  |  |
| CN1CCc2cccc(Cl)c2CC1 [MLS002172470] |  | 900 nM | 1100 nM | 42 nM | 13 nM |  |
| COC(=O)[C@@H]1[C@H]2C[C@H]3c4[nH]c5ccccc5c4CCN3C[C@@H]2CC[C@@H]1O [yohimbic acid methyl ester] |  | 1100 nM and 275 nM |  |  |  | 21 nM |
| COC(=O)[C@H]1[C@H]2C[C@H]3c4[nH]c5ccccc5c4CCN3C[C@H]2CC[C@@H]1O [RAUWOLSCINE HYDROCHLORIDE] |  | 1800 nM and 4000 nM and 1300 nM | 234 nM |  |  |  |
